The results in this text go back to patent US20240246903A1, “INDANONE AND TETRALONEKETO OR HYDROXYL OXIMES AS CANCEL THERAPEUTICS” (Board of Regents, The University of Texas System, priority 2021, published 2024).

The test system of this assay is GBM cells. The assay is described as follows: GBM cell viability (MTT assay). The assay is classed as cell-based. To be noted: FIG. 3, read-out: concentration that reduces cell viability by 50%. On the procedure: To assess, the antitumor activity of the new ERβ agonist compounds, GBM cells were assessed for viability using a commercially available MTT assay. Briefly, the assay determines the number of viable cells in culture by […], which indicates the presence of metabolically active cells. Previously described agonists such as LY was able to reduce viability by 50% with concentration of 10 μM or greater. The new compounds described in this disclosure have higher potency than existing compounds and some reduce cell viability by 50% at concentrations even at 3 μM (FIG. 3).

pIC50: −log10 of the molar value.

For the molecule `Oc1ccc([C@@H]2Oc3ccc(O)cc3[C@@H]3CCC[C@@H]32)cc1` [LY, (3aS,4R,9bR)-4-(4-hydroxyphenyl)-1,2,3,3a,4,9b-hexahydrocyclopenta[c]chromen-8-ol], the pIC50 is ≤ 5.00.
